Consider two compounds from paper PMC8065974 (Biomedicines, 2021).

Like-named read-outs stand apart in the source and are kept apart here.

Type in all cases: in vivo, mice (C57BL/6J)
In data set [1] the test system is protein carbonyl in obstructed kidney. Nature of the data set: Curative treatment in UUO: protein carbonylation (carbonyl ELISA). The settings on record: curative: 25 mg/kg, 5 days; vs UUO + vehicle. On the procedure: The protein carbonylation was determined as described previously by the carbonyl ELISA assay based on the recognition of protein-bound DNPH in carbonylated proteins with an anti-DNP antibody.
Background: ELISA stands for enzyme-linked immunosorbent assay.

Data set [2] deals with Mn-SOD, Cu/Zn-SOD, GPX, CAT activities in obstructed kidney. Nature of the data set: Curative treatment in UUO: antioxidant enzyme activities in kidney tissue. The note with it: curative: 25 mg/kg, 5 days; vs UUO + vehicle. On the procedure: After centrifugation (5000× g[…], for 10 min), the supernatant was used for protein quantification and enzymatic assays. The total protein level of lysate was quantified by the bicinchoninic acid assay (BCA). SOD activity was assayed by monitoring the rate of acetylated cytochrome c reduction by superoxide radicals generated by the xanthine/xanthine oxidase system. Measurements were performed in a reagent buffer (xanthine oxidase, xanthine (0.5 mM), cytochrome c (0.2 mM), KH2PO4 (50 mM), EDTA (2 mM), pH 7.8) at 25 °C. The specific MnSOD activities were determined in the same conditions after incubation of samples with NaCN (1 mM) which inhibits Cu/ZnSOD activities. Assays were monitored by spectrophotometry at 560 nm. SOD activities were calculated using a calibration standard curve of SOD (up to 6 unit/mg). Total SOD, MnSOD and resulting Cu/ZnSOD activities were expressed as international catalytic units per mg of proteins. The total activity of glutathione peroxidase (GPX) was determined with cumene hydroperoxide as substrate. The rate of glutathione oxidized by cumene hydroperoxide (6.5 mM) was evaluated by the decrease in NADPH (0.12 mM in Tris buffer) at 340 nm in the presence of NaCN (10 mM), reduced glutathione (0.25 mM) and glutathione reductase (1 U/mL) in Tris buffer (50 mM, pH 8). GPX activity was expressed as international units per gram of proteins. The catalase (CAT) activity assay was carried out on 40 µg of protein lysate in 25 mM Tris–HCl (pH 7.5). Blanks were measured at 240 nm just before adding 80 µL of H2O2 (10 mM final) to start the reaction. Catalase activity was determined by measuring the absorbance at 240 nm and was calculated using a calibration standard curve of an increasing amount of catalase between 12.5 and 125 unit/mL. Catalase activity was expressed as international catalytic units per mg of proteins.

The nature of data set [3]: Biodistribution of caffeic acid and ferulic acid after A. borbonica extract (UPLC-MS). The note with it: for concentration at 24 h: C57BL/6J, mouse, oral, 25 mg/kg; for Concentration in urine: urine collected overnight. On the procedure: Polyphenolic extract from A. borbonica was prepared by dissolving 1 g of crushed leaves in 25 mL of an aqueous acetonic solution (70%, v/v). After incubation at 4 °C for 90 min, the mixture was centrifuged at 3500× g […] at 4 °C for 20 min and polyphenol-rich supernatant was collected and stored at −80 °C until analysis. Identification of polyphenols was carried out by ultra-high-performance liquid chromatography (UHPLC) coupled with diode array detection and a HESI-Orbitrap mass spectrometer (Q Exactive Plus, Thermo Fisher). A 10 µL sample volume was injected using an UHPLC system equipped with a Thermo Fisher Ultimate 3000 series WPS-3000 RS autosampler and then separated on a PFP column (2.6 μm, 100 mm × 2.1 mm, Phenomenex, Torrance, CA, USA). The column was eluted with a gradient mixture of 0.1% formic acid in water (A) and 0.1% formic acid in acetonitrile (B) at the flow rate of 0.450 mL/min, with 5% B at 0.00 to 0.1 min, 35% B at 0.1 to 7.1 min, 95% B at 7.2 to 7.9 min and 5% B at 8.0 to 10 min. The column temperature was held at 30 °C and the detection wavelengths were set to 280 and 310 nm.
For mass spectrometer conditions, a Heated Electrospray Ionization source II (HESI II) was used. Nitrogen was used as drying gas. The mass spectrometric conditions were optimized as follows: spray voltage = 2.8 kV, capillary temperature = 350 °C, sheath gas flow rate = 60 units, aux gas flow rate = 20 units and S lens RF level = 50. Mass spectra were registered in full scan mode from m/z 100 to 1500 in negative ion mode at a resolving power of 70,000 FWHM at m/z 400. The automatic gain control (AGC) was set at 1e6. The MS/MS spectra were obtained by applying a relatively higher energy collisional dissociation (HCD) energy of 25%.
For biodistribution study, one day before sacrifice animals were placed in metabolic cages to collect urine overnight. CA and its metabolites were measured by UPLC-MS/MS in liver and kidney tissues and urine.

For data set [4], the system named is mRNA of inflammatory, fibrotic and antioxidant genes in obstructed kidney. Nature of the data set: Curative treatment in UUO: RT-qPCR of obstructed kidney. The settings on record: curative: 25 mg/kg daily gavage from day 3 after UUO for 5 days. On the procedure:
The unilateral ureteral ligation was performed as previously described. Briefly, under oxygen-isoflurane anesthesia and through a longitudinal, left abdominal incision, the ureter was exposed and ligated with a 6/0 nylon thread at the uretero-pelvic junction. In sham operations, the ureter was exposed but not ligated and repositioned. To reduce pain Buprenorphine (0.01 mg/kg) (Buprecare […], France) was injected i.p before surgery and 12 h later. […] A. borbonica polyphenol extract (25 mg/kg) or CA (25 mg/kg) were resuspended in distilled water just before gavage. The control group received only the vehicle (distilled water). At the end of the different protocols, mice were sacrificed and the kidneys were removed, and a transverse section was fixed in Carnoy's solution for 24 h and subsequently embedded in paraffin for immuno-histological analysis. Several pieces of renal cortex were snap-frozen in liquid nitrogen and stored at -80 °C for mRNA, enzyme activities and MS/MS analysis. Total RNA was isolated from mouse kidneys with TRIzol^TM reagent (Invitrogen). […] The quantitative real-time polymerase chain reaction was performed in a 96 well plate using SYBR green^TM master mix (Eurogentec). Analysis of GAPDH was performed to normalize gene expression and the relative mRNA fold changes between groups were calculated using the 2^-^ΔΔ^Ct method.
(Quantitative PCR measures a nucleic acid by following its amplification.)

Data set [5] deals with unilateral ureteral obstruction (UUO) mouse model. As to the kind of experiment: Curative treatment in UUO-induced tubulointerstitial fibrosis: immunohistochemistry and Sirius red histology. The note with it: curative: 25 mg/kg daily gavage from day 3 after UUO for 5 days; vs UUO + vehicle; n = 7. On the procedure: The unilateral ureteral ligation was performed as previously described. Briefly, under oxygen-isoflurane anesthesia and through a longitudinal, left abdominal incision, the ureter was exposed and ligated with a 6/0 nylon thread at the uretero-pelvic junction. In sham operations, the ureter was exposed but not ligated and repositioned. To reduce pain Buprenorphine (0.01 mg/kg) (Buprecare […], France) was injected i.p before surgery and 12 h later. […] A. borbonica polyphenol extract (25 mg/kg) or CA (25 mg/kg) were resuspended in distilled water just before gavage. The control group received only the vehicle (distilled water). At the end of the different protocols, mice were sacrificed and the kidneys were removed, and a transverse section was fixed in Carnoy's solution for 24 h and subsequently embedded in paraffin for immuno-histological analysis. Several pieces of renal cortex were snap-frozen in liquid nitrogen and stored at -80 °C for mRNA, enzyme activities and MS/MS analysis. Kidneys were fixed in Carnoy's solution, dehydrated and embedded in paraffin. From kidney sections, routine histology and immunohistological staining and analysis were performed as previously described. Three to four μm thickness sections were cut and used for routine staining (hematoxylin-eosin and Sirius red staining) and immunohistochemistry. […] For immunohistochemistry, mouse renal tissue was first de-waxed in toluene and rehydrated through a series of graded ethanol washes before incubation with 3% hydrogen peroxide for 10 min at room temperature to block endogenous peroxidase activity. […] The sections were subsequently stained with the Dako Envision system ([…] (primary antibodies from mouse) and K4002 (primary antibodies from rabbit)) according to manufacturer's instruction. Sections were finally counterstained with hematoxylin. Negative controls for the immunohistochemical procedures included substitution of the primary antibody with nonimmune sera at a similar immunoglobin concentration. […]

Data set [6] is described as follows: Plasma and kidney pharmacokinetics after a single oral dose of CA in UUO mice. The note with it: single oral dose of CA 25 mg/kg, 3 days-UUO mice; for Cmax: n = 3/time, read-out: Cmax (peak plasma concentration). On the procedure: For pharmacokinetics study, the animals were submitted to UUO and 3 days later they were fasted overnight and then treated with a single dose of CA (25 mg/kg) or vehicle (n = 3/group). Blood samples (90 µL) were collected at time 0 (before treatment), 30 min, 60 min, 180 min and 360 min post-treatment. CA concentrations were measured by UPLC-HESI-Q-orbitrap (Q Exactive Plus).
To this end, three days after UUO, mice were administrated by oral route a unique dose of CA (25 mg/kg) and then were sacrificed at 30, 60, 180 and 360 min.

Data set [7] is described as follows: DESI-HR/MS imaging of obstructed kidney. The note with it: 1 h post oral administration of CA 25 mg/kg, UUO mice.
Protocol: The 2D automated Omni Spray Kidney tissues were flash-frozen in nitrogen and stored at −80 °C before DESI-HR/MS imaging. For DESI-MS imaging and histology, 12 μm thickness kidney sections were collected and mounted on SuperFrost™ Plus glass slides.
The 2D automated Omni Spray ion source from Prosolia Inc. (Indianapolis, IN, USA) coupled to a Q-Exactive™ Plus mass spectrometer (Thermo Fisher Scientific, Bremen, Germany) was used to perform the mass spectrometry imaging experiment. A solution of methanol with 0.1% formic acid (HPLC-MS grade, Carlo Erba) was used as the extraction and ionization spray solvent, delivered by a syringe pump at a flow rate of 5 μL/min. All imaging experiments were carried out with the following experimental conditions including source parameters: 2.8 kV capillary voltage, 250 °C capillary temperature, 60% S-lens RF level and 86 psi nitrogen nebulizing gas pressure, and including geometrical parameters: ∼1 mm spray tip-to-surface distance and a spray incident angle of 60°. Mass spectra were registered in full scan mode with the mass spectrometer operating in negative mode. Survey full scan mass spectra were acquired in the 50 to 500 m/z range at resolving power 70,000 (at m/z 400) with an automatic gain control (AGC) target of 3^6 and maximum injection time of 200 ms. […]
[8] abbreviates: liver, read-out: Concentration in liver.
The mark [9] stands for this setting: UUO mice after ingestion of 25 mg/kg A. borbonica extract (gavage), n = 7, mean ± SD.
Where [10] appears, read: C57BL/6J, mouse, contralateral kidney, read-out: AUC (0-360) in contralateral kidney (converted).
Where [11] appears, read: C57BL/6J, mouse, contralateral kidney, read-out: concentration in contralateral kidney one hour after CA administration.
[12] abbreviates: C57BL/6J, mouse, obstructed kidney, read-out: AUC (0-360) in obstructed kidney (converted).
The mark [13] stands for this setting: C57BL/6J, mouse, obstructed kidney, read-out: concentration in obstructed kidney one hour after CA administration.
Where [14] appears, read: C57BL/6J, mouse, plasma, 0 to 360 min, read-out: AUC (0-360) in plasma (converted).

What is called bioavailability is the share of a dose that reaches the circulation, judged against a reference dose that is usually intravenous. In the case of `O=C(O)/C=C/c1ccc(O)c(O)c1` [Caffeic acid, caffeic acid], the “UUO-induced increase in protein carbonyl level in obstructed kidney” value in data set [1] is recorded as “slight decrease in carbonyl level which did not reach statistical significance”. Also, the “CAT enzyme activity in obstructed kidney” value in data set [2] is given as “significantly increased”. For the same compound, the “Cu/Zn-SOD enzyme activity in obstructed kidney” value in data set [2] is “significantly increased”. Further, the “GPX enzyme activity in obstructed kidney” value in data set [2] is “not significantly different”. Further, the concentration at 24 h turned out to be 0.037 ± 0.001 µM in data set [3] (setting [8]) and 0.144 ± 0.013 µM in data set [3] (obstructed kidney, read-out: Concentration in obstructed kidney). The “Concentration in obstructed kidney” value in data set [3] (UUO mice after ingestion of 25 mg/kg A. borbonica extract (gavage), 24 h after administration, n = 7, mean ± SD) is 0.144 ± 0.013 µM. Further, the Concentration in urine in data set [3] (setting [9]) is given as 96.599 ± 19.704 µM; in data set [3] (UUO mice after ingestion of 25 mg/kg A. borbonica extract (gavage), n = 7, mean ± SD, listed as CA), 96.599 ± 19.704 µM. The “Nrf2 mRNA expression” value in data set [4] is reported as “significant increase”. Besides, the “UUO-induced mRNA expression of inflammatory and fibrotic genes (Tgf-β, Tnf-α, Nf-κB, Mcp1, Fn, Col I, Col III)” value in data set [4] (vs UUO + vehicle) is given as “downregulated”. Besides, the “extracellular matrix accumulation / renal tubulointerstitial fibrosis (Sirius red staining)” value in data set [5] is reported as “significant protective effect”. Further, in data set [5], the “macrophage infiltration (F4/80 immunostaining)” value was “significant protective effect”. Besides, the “myofibroblast appearance/accumulation (α-SMA immunostaining)” value in data set [5] was “significant protective effect”. Further, the AUC(0-t) is 1.67 µM·h in data set [6] (setting [10]), 14.7 µM·h in data set [6] (setting [12]) and 82.7 µM·h in data set [6] (setting [14]). The concentration at 1 h in data set [6] (setting [11]) was found to be 0.3 ± 0.1 µM; in data set [6] (setting [13]) it was 5.3 ± 1.1 µM. For the same compound, the tmax is not above 30 min in data set [6] (C57BL/6J, mouse, plasma, po, 25 mg/kg, plasma, read-out: tmax) and 30 min in data set [6] (plasma). Besides, the bioavailability in data set [6] (C57BL/6J, mouse, plasma, read-out: Bioavailability F) was found to be 0.4%. In addition, the Cmax in data set [6] (C57BL/6J, mouse, plasma) came out at 50.5 µM.
For the compound `COc1cc(/C=C/C(=O)O)ccc1O` [Ferulic acid, ferulic acid], in data set [7], the “spatial distribution in obstructed kidney (DESI-HR/MS imaging)” value was “in the renal cortex”. For the same compound, the concentration at 24 h in data set [3] (setting [8]) was 0.426 ± 0.099 µM. Moreover, the Concentration in urine is given as 38.002 ± 5.021 µM in data set [3] (setting [9]) and 38.002 ± 5.021 µM in data set [3] (UUO mice after ingestion of 25 mg/kg A. borbonica extract (gavage), n = 7, mean ± SD, listed as FA). Also, the AUC(0-t) was 1.64 µM·h in data set [6] (setting [10]), 17.9 µM·h in data set [6] (setting [12]) and 77.5 µM·h in data set [6] (setting [14]). Also, the concentration at 1 h stood at 0.4 ± 0.1 µM in data set [6] (setting [11]) and 4.5 ± 0.8 µM in data set [6] (setting [13]). Moreover, in data set [6] (C57BL/6J, mouse, plasma), the Cmax stood at 68.3 ± 8.3 µM. The tmax entry in data set [6] (plasma) is given as “same tmax as CA”.
